The source of these data is patent US6385487B1, “Methods for electrokinetic delivery of medicaments” (Biophoretic Therapeutic Systems, LLC, priority 1996, dated 2002).

For one test, the system named is herpes lesions. Kind of test: Control group: patients with concurrent herpes lesions, one treated iontophoretically, the other by repeated topical application of the same agent. In kind it is in vivo, human. The following applies: for Major Response (count), Control lesion / No Response (count), Control lesion / Some Response (count), Control lesion: repeated unassisted topical application of the same antiviral agent; for Major Response (count), Treated lesion / No Response (count), Treated lesion / Some Response (count), Treated lesion: iontophoretically treated lesion, single 10-15 minute treatment; for Outcome of unassisted topically treated lesions: repeated topical application, compared with resolution in 24 hours; for Outcome of iontophoretically treated lesions: single 10-15 minute iontophoretic treatment, all treated lesions. The protocol: The study included a control situation wherein seven patients were found who had simultaneous concurrent herpes lesions at separate locations on their bodies. In each case, one lesion was treated with iontophoretic application of antiviral agent (Acyclovir® or IUDR) and the other lesion was treated in the standard method employed in the prior art comprising repeated topical application of the same antiviral agent.
(§1) The clinical studies included patient volunteers with full informed consent who suffered from recurrent cold sores. […] The treatment incorporated an electrode saturated with Acyclovir® ointment (ZOVIRAX®) or IUDR (STOXIL®) ophthalmic drops as supplied by the manufacturer. Thus mounted Anodic electrode of the prototype system was used for a 10-15 minute application directly to the lesion with the average current setting of 0.2 ma-0.6 ma which was well tolerated by all patients.
(§2) The lesion was evaluated in 24 hours. In 92% of the iontophoretically treated cases (>70 lesions treated) a major response was noted. A major response was categorized by resolution of pain in <6 hours and lesion crusted and healing within 24 hours. The normal course of cold sores involves an average period of 10-12 days before resolution and healing occurs. The present apparatus and clinical method for treatment of mucocutaneous Herpes Simplex (Type I and Type II) eruptions presented herein have been described and performed with excellent results. This novel user-friendly apparatus in combination with the disclosed clinical treatment method presents a very effective new treatment for Herpes Simplex eruptions.

Test [1] relates to mucocutaneous Herpes Simplex (Type I and Type II) eruptions. Nature of the test: Clinical study: iontophoretic application of antiviral agent to herpes lesions (Stage 1 treatment). The following applies: for No response (count, Stage 1 treatment results) / Some response (count, Stage 1 treatment results): iontophoretic 10-15 minute application to lesion, 0.2 ma-0.6 ma, evaluated in 24 hours; for Major response (count, Stage 1 treatment results): iontophoretic 10-15 minute application, major response = resolution of pain in <6 hours and lesion crusted and healing within 24 hours. The class given is in vivo, human.
Description: The inventor has conducted a clinical study using a prototype iontophoretic device in accordance with the present invention for the treatment of cold sores. The clinical response was promising. A second independent, qualified investigator, a board-certified Urologist, conducted a study using the present apparatus and method for treating male genital herpes lesions with encouraging results. Table 1 summarizes data (discussed below) supporting the claim to unexpected clinical benefits treating disease with this novel method. The method and medicament application device when used together for treating these common, embarrassing, and previously not easily-treatable ailments provide surprising advantages.
The embodiment of the device shown in FIG. 1 and described hereinabove is an improvement over the prototype used in the clinical study, which was a larger unit, not user-friendly, which required physically connecting wires to the patient's body which created anxiety, and could not be used without attending personnel. Notwithstanding design, the apparatus used in the clinical study summarized in Table 1 employed electronics similar to the apparatus described herein and was used to optimize the clinical performance of the embodiment 12 of the device described herein.
as §1, §2

For `O=c1[nH]c(=O)n([C@H]2C[C@H](O)[C@@H](CO)O2)cc1I` [IUDR, 5-iodo-2 deoxyuridine], in the test on herpes lesions, the “Major Response (count), Control lesion” value is 0; the “No Response (count), Control lesion” value is 5; the “Some Response (count), Control lesion” value came out at 2; the “Major Response (count), Treated lesion” value is 7. In the test on herpes lesions, the “No Response (count), Treated lesion” value came out at 0; the “Some Response (count), Treated lesion” value came out at 0; the “Outcome of unassisted topically treated lesions” value was “none of the unassisted topically treated lesions demonstrated a similar response”; the “Outcome of iontophoretically treated lesions” value is recorded as “resolution in 24 hours”. For the same compound, in test [1], the “No response (count, Stage 1 treatment results)” value is recorded as 1; the “Some response (count, Stage 1 treatment results)” value amounted to 1; the “Major response (count, Stage 1 treatment results)” value turned out to be 26.
As to `Nc1nc2c(ncn2COCCO)c(=O)[nH]1` [ACYCLOVIR ®, 2-amino-1,9-dihydro-9-[(2-hydroxyethoxy)methyl]-6H-purin-6-one], in the test with herpes lesions, the “Major Response (count), Control lesion” value worked out at 0; the “No Response (count), Control lesion” value is listed as 1; the “Some Response (count), Control lesion” value was found to be 0; the “Major Response (count), Treated lesion” value was determined as 1. In the test on herpes lesions, the “No Response (count), Treated lesion” value is recorded as 0; the “Some Response (count), Treated lesion” value came to 0; the “Outcome of unassisted topically treated lesions” value is “none of the unassisted topically treated lesions demonstrated a similar response”; the “Outcome of iontophoretically treated lesions” value is on record as “resolution in 24 hours”. In test [1], the “No response (count, Stage 1 treatment results)” value stood at 1; the “Some response (count, Stage 1 treatment results)” value is 3; the “Major response (count, Stage 1 treatment results)” value was found to be 42.
